Results from paper doi:10.64898/2025.12.13.694138, “Structural insights into xyloglucan recognition by an ABC transporter from a Gram-positive, thermophilic bacterium” (bioRxiv, 2025).
pKd: −log10 of the molar value. Like-named read-outs stand apart in the source and are kept apart here. Each block holds one compound with its values, some of them ahead of it.

Key:
Assay in all cases: ITC ([…] °C); DSC ΔTm […] °C
Type in all cases: binding
[1] = molecular target: T1, Athe_2052 (Caldicellulosiruptor bescii, UniProt B9MLD9)
T1 construct: Athe_2052 without its signal peptide, N-terminal hexa-histidine tag

[2] = molecular target: T1, Athe_2052; remark: listed apart in the source
[3] = molecular target: T1, Athe_2052; remark: listed apart in the source

T1 sequence (B9MLD9 entry or part of it): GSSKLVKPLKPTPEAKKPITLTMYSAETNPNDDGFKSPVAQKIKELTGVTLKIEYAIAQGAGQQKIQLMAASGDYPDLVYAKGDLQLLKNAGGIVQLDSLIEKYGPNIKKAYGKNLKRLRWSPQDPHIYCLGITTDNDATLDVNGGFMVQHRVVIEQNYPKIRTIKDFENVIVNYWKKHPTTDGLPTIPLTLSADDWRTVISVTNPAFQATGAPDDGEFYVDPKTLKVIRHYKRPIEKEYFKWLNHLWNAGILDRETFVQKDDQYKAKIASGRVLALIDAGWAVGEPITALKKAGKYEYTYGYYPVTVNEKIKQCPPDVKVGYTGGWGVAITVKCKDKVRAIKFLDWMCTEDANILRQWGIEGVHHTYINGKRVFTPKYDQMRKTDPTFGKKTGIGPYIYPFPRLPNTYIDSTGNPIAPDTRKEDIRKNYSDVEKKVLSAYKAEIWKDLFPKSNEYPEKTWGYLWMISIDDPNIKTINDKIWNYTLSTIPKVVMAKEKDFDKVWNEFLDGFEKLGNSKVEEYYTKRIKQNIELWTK

pKd [1]: 6.61
Structure (SMILES): OC[C@H]1O[C@@H](O[C@H]2[C@H](O)[C@@H](O)[C@H](O[C@H]3[C@H](O)[C@@H](O)C(O)O[C@@H]3CO)O[C@@H]2CO)[C@H](O)[C@@H](O)[C@@H]1O (stereo partly drawn) [Cellotriose]

pKd [2]: 6.67
Structure (SMILES): OC[C@H]1O[C@@H](O[C@H]2[C@H](O)[C@@H](O)[C@H](O[C@H]3[C@H](O)[C@@H](O)[C@H](O[C@H]4[C@H](O)[C@@H](O)C(O)O[C@@H]4CO)O[C@@H]3CO)O[C@@H]2CO)[C@H](O)[C@@H](O)[C@@H]1O (stereo partly drawn) [Cellotetraose]

pKd [3]: 7.85
Structure (SMILES): OC[C@H]1OC(O)[C@H](O)[C@@H](O)[C@@H]1O[C@@H]1O[C@H](CO[C@H]2OC[C@@H](O)[C@H](O)[C@H]2O)[C@@H](O[C@@H]2O[C@H](CO[C@H]3OC[C@@H](O)[C@H](O)[C@H]3O)[C@@H](O[C@@H]3O[C@H](CO[C@H]4OC[C@@H](O)[C@H](O)[C@H]4O)[C@@H](O)[C@H](O)[C@H]3O)[C@H](O)[C@H]2O)[C@H](O)[C@H]1O (stereo partly drawn) [XXXG, xyloglucan heptasaccharide]
